Reference: ChEMBL document CHEMBL4387711, “Discovery of niclosamide and its O-alkylamino-tethered derivatives as potent antibacterial agents against carbapenemase-producing and/or colistin resistant Enterobacteriaceae isolates” (2019)
In brackets after ≈: the same amount, converted by molar mass. Activity calls are given as the source filed them. The rule behind the calls is not given here.

Key:
Enterobacter cloacae [1] = experiment: Antibacterial activity against colistin-resistant Enterobacter cloacae 142 assessed as inhibition of growth at 50 uM after 18 hrs; format: functional, organism-based
Klebsiella pneumoniae [2] = experiment: Bactericidal activity against OXA-48/CTX-M-15/carbapenemase-producing Klebsiella pneumoniae 28 assessed as reduction in bacterial count at MIC measured from 2 hrs in presence of colistin by time kill assay; format: functional, organism-based
Klebsiella pneumoniae [3] = experiment: Antibacterial activity against colistin-susceptible NDM-1/carbapenemase-producing Klebsiella pneumoniae by broth microdilution method; format: functional
Enterobacter cloacae [4] = experiment: Antibacterial activity against colistin-resistant Enterobacter cloacae 190 assessed as inhibition of growth at 50 uM after 18 hrs; format: functional, organism-based
Enterobacter cloacae [5] = experiment: Antibacterial activity against colistin-resistant Enterobacter cloacae 280 by broth microdilution method; format: functional
Enterobacter cloacae [6] = experiment: Antibacterial activity against colistin-resistant Enterobacter cloacae 263 assessed as inhibition of growth at 50 uM after 18 hrs; format: functional, organism-based
Enterobacter cloacae [7] = experiment: Antibacterial activity against colistin-resistant Enterobacter cloacae 32 assessed as inhibition of growth at 50 uM after 18 hrs; format: functional, organism-based
Enterobacter cloacae [8] = experiment: Antibacterial activity against colistin-resistant Enterobacter cloacae 272 assessed as inhibition of growth at 50 uM after 18 hrs; format: functional, organism-based
Klebsiella aerogenes [9] = experiment: Antibacterial activity against colistin-resistant Enterobacter aerogenes 53 assessed as inhibition of growth at 50 uM after 18 hrs; format: functional, organism-based
Escherichia coli [10] = experiment: Antibacterial activity against colistin-susceptible NDM1/KPC-producing Escherichia coli assessed as inhibition of growth at 50 uM after 18 hrs; format: functional, organism-based
Klebsiella aerogenes [11] = experiment: Antibacterial activity against colistin-resistant Enterobacter aerogenes 3 assessed as inhibition of growth at 50 uM after 18 hrs; format: functional, organism-based
Klebsiella pneumoniae [12] = experiment: Antibacterial activity against colistin-susceptible VIM1/carbapenemase-producing Klebsiella pneumoniae 07 assessed as inhibition of growth at 50 uM after 18 hrs; format: functional, organism-based
Escherichia coli [13] = experiment: Synergistic antibacterial activity against colistin-susceptible NDM1/KPC-producing Escherichia coli in presence of colistin by checkerboard assay; format: functional
Klebsiella pneumoniae [14] = experiment: Antibacterial activity against colistin-resistant VIM1/DHAI/carbapenemase-producing Klebsiella pneumoniae 21 assessed as inhibition of growth at 50 uM after 18 hrs; format: functional, organism-based
Enterobacter cloacae [15] = experiment: Antibacterial activity against colistin-resistant Enterobacter cloacae 297 by broth microdilution method; format: functional
Klebsiella pneumoniae [16] = experiment: Antibacterial activity against carbapenemase/Klebsiella pneumoniae CECT-997 by broth microdilution method; format: functional
Escherichia coli [17] = experiment: Antibacterial activity against colistin-susceptible NDM1/KPC-producing Escherichia coli by broth microdilution method; format: functional
Klebsiella pneumoniae [18] = experiment: Antibacterial activity against colistin-susceptible OXA-48/CTX-M-15/carbapenemase-producing Klebsiella pneumoniae 28 assessed as inhibition of growth at 50 uM after 18 hrs; format: functional, organism-based
Enterobacter cloacae [19] = experiment: Antibacterial activity against colistin-resistant Enterobacter cloacae 280 assessed as inhibition of growth at 50 uM after 18 hrs; format: functional, organism-based
Klebsiella pneumoniae [20] = experiment: Antibacterial activity against colistin-resistant OXA-48/CTX-M-15/carbapenemase-producing Klebsiella pneumoniae 29 assessed as inhibition of growth at 50 uM after 18 hrs; format: functional, organism-based
Klebsiella pneumoniae [21] = experiment: Synergistic bactericidal activity against OXA-48/CTX-M-15/carbapenemase-producing Klebsiella pneumoniae 28 assessed as reduction in bacterial count at MIC measured after 2 hrs in presence of colistin by time kill assay; format: functional, organism-based
Enterobacter cloacae [22] = experiment: Antibacterial activity against colistin-resistant Enterobacter cloacae 297 assessed as inhibition of growth at 50 uM after 18 hrs; format: functional, organism-based
Klebsiella pneumoniae [23] = experiment: Antibacterial activity against colistin-susceptible NDM-1/carbapenemase-producing Klebsiella pneumoniae assessed as inhibition of growth at 50 uM after 18 hrs; format: functional, organism-based
Klebsiella pneumoniae [24] = experiment: Antibacterial activity against colistin-susceptible OXA-48/CTX-M-15/carbapenemase-producing Klebsiella pneumoniae 28 by broth microdilution method; format: functional
Klebsiella pneumoniae [25] = experiment: Antibacterial activity against Klebsiella pneumoniae CECT-997 assessed as inhibition of growth at 50 uM after 18 hrs; format: functional, organism-based
Enterobacter cloacae [26] = experiment: Bactericidal activity against colistin-resistant Enterobacter cloacae 280 assessed as reduction in bacterial count at MIC measured after 2 hrs in presence of colistin by time kill assay; format: functional, organism-based
Enterobacter cloacae [27] = experiment: Synergistic bactericidal activity against colistin-resistant Enterobacter cloacae 280 assessed as reduction in bacterial count at MIC measured after 8 hrs in presence of colistin by time kill assay; format: functional, organism-based
Enterobacter cloacae [28] = experiment: Synergistic antibacterial activity against colistin-resistant Enterobacter cloacae 280 in presence of colistin by checkerboard assay; format: functional
Enterobacter cloacae [29] = experiment: Synergistic antibacterial activity against colistin-resistant Enterobacter cloacae 297 in presence of colistin by checkerboard assay; format: functional
Enterobacter cloacae [30] = experiment: Antibacterial activity against colistin-resistant Enterobacter cloacae 32 by broth microdilution method; format: functional, organism-based
Klebsiella aerogenes [31] = experiment: Antibacterial activity against colistin-resistant Enterobacter aerogenes 53 by broth microdilution method; format: functional, organism-based
Klebsiella pneumoniae [32] = experiment: Antibacterial activity against colistin-resistant OXA-48/CTX-M-15/carbapenemase-producing Klebsiella pneumoniae 29 by broth microdilution method; format: functional, organism-based
Escherichia coli [33] = experiment: Bactericidal activity against colistin-susceptible NDM-1/KPC-producing Escherichia coli assessed as reduction in bacterial count at MIC measured after 2 hrs by time kill assay; format: functional, organism-based
Klebsiella aerogenes [34] = experiment: Antibacterial activity against colistin-resistant Enterobacter aerogenes 3 by broth microdilution method; format: functional, organism-based
Enterobacter cloacae [35] = experiment: Antibacterial activity against colistin-resistant Enterobacter cloacae 190 by broth microdilution method; format: functional, organism-based
Klebsiella pneumoniae [36] = experiment: Antibacterial activity against colistin-susceptible VIM1/carbapenemase-producing Klebsiella pneumoniae 07 by broth microdilution method; format: functional, organism-based
Klebsiella pneumoniae [37] = experiment: Antibacterial activity against colistin-resistant VIM1/DHAI/carbapenemase-producing Klebsiella pneumoniae 21 by broth microdilution method; format: functional, organism-based
Enterobacter cloacae [38] = experiment: Antibacterial activity against colistin-resistant Enterobacter cloacae 263 by broth microdilution method; format: functional, organism-based
Enterobacter cloacae [39] = experiment: Antibacterial activity against colistin-resistant Enterobacter cloacae 142 by broth microdilution method; format: functional, organism-based
Enterobacter cloacae [40] = experiment: Antibacterial activity against colistin-resistant Enterobacter cloacae 272 by broth microdilution method; format: functional, organism-based
Klebsiella pneumoniae [41] = experiment: Bactericidal activity against OXA-48/CTX-M-15/carbapenemase-producing Klebsiella pneumoniae 28 assessed as reduction in bacterial count at MIC measured from 4 to 8 hrs in presence of colistin by time kill assay; format: functional, organism-based
Klebsiella pneumoniae [42] = experiment: Synergistic bactericidal activity against OXA-48/CTX-M-15/carbapenemase-producing Klebsiella pneumoniae 28 assessed as reduction in bacterial count at MIC measured after 8 hrs in presence of colistin by time kill assay; format: functional, organism-based
Klebsiella pneumoniae [43] = experiment: Synergistic antibacterial activity against colistin-susceptible NDM-1/carbapenemase-producing Klebsiella pneumoniae in presence of colistin by checkerboard assay; format: functional
Escherichia coli [44] = experiment: Bactericidal activity against colistin-susceptible NDM-1/KPC-producing Escherichia coli assessed as reduction in bacterial count at MIC measured after 2 hrs in presence of colistin by time kill assay; format: functional, organism-based

Compound | growth inhibition (GI) (Enterobacter cloacae [1]) | MIC (Klebsiella pneumoniae [3]) | growth inhibition (GI) (Enterobacter cloacae [4]) | MIC (Enterobacter cloacae [5]) | growth inhibition (GI) (Enterobacter cloacae [6]) | growth inhibition (GI) (Enterobacter cloacae [7]) | growth inhibition (GI) (Enterobacter cloacae [8]) | growth inhibition (GI) (Klebsiella aerogenes [9]) | growth inhibition (GI) (Escherichia coli [10]) | growth inhibition (GI) (Klebsiella aerogenes [11]) | growth inhibition (GI) (Klebsiella pneumoniae [12]) | growth inhibition (GI) (Klebsiella pneumoniae [14]) | MIC (Enterobacter cloacae [15]) | MIC (Klebsiella pneumoniae [16]) | MIC (Escherichia coli [17]) | growth inhibition (GI) (Klebsiella pneumoniae [18]) | growth inhibition (GI) (Enterobacter cloacae [19]) | growth inhibition (GI) (Klebsiella pneumoniae [20]) | growth inhibition (GI) (Enterobacter cloacae [22]) | MIC (Klebsiella pneumoniae [24]) | other results
NCCCCCOc1ccc(Cl)cc1C(=O)Nc1ccc([N+](=O)[O-])cc1Cl | inactive | > 15 µg/mL | inactive | inactive | inactive | inactive | inactive | inactive | Active | inactive | inactive | inactive | inactive | inactive | > 15 µg/mL | Active | inactive | inactive | inactive | 15 µg/mL (≈ 36.4 µM) | Activity (Klebsiella pneumoniae [2]): Active; fractional inhibitory concentration index (FICI) (Escherichia coli [13]): 0.38; Activity (Klebsiella pneumoniae [21]): Active; growth inhibition (GI) (Klebsiella pneumoniae [23]): Active; growth inhibition (GI) (Klebsiella pneumoniae [25]): inactive
O=C(Nc1ccc([N+](=O)[O-])cc1Cl)c1cc(Cl)ccc1O [NICLOSAMIDE] | inactive | inactive | inactive | > 15 µg/mL | inactive | inactive | inactive | inactive | inactive | inactive | inactive | inactive | > 15 µg/mL | inactive | inactive | inactive | Active | inactive | Active | inactive | Activity (Enterobacter cloacae [26]): Active; Activity (Enterobacter cloacae [27]): Active; fractional inhibitory concentration index (FICI) (Enterobacter cloacae [28]): 0.25; growth inhibition (GI) (Klebsiella pneumoniae [23]): inactive; fractional inhibitory concentration index (FICI) (Enterobacter cloacae [29]): 0.25; growth inhibition (GI) (Klebsiella pneumoniae [25]): inactive
COLISTIN |  | 0.5 µg/mL |  | 32 µg/mL |  |  |  |  |  |  |  |  | 3 µg/mL |  | 0.5 µg/mL |  |  |  |  | 0.5 µg/mL | MIC (Enterobacter cloacae [30]): > 256 µg/mL; MIC (Klebsiella aerogenes [31]): 32 µg/mL; MIC (Klebsiella pneumoniae [32]): 32 µg/mL; Activity (Escherichia coli [33]): Active; MIC (Klebsiella aerogenes [34]): 32 µg/mL; MIC (Enterobacter cloacae [35]): 32 µg/mL; MIC (Klebsiella pneumoniae [36]): 0.5 µg/mL; MIC (Klebsiella pneumoniae [37]): 64 µg/mL; MIC (Enterobacter cloacae [38]): 8 µg/mL; MIC (Enterobacter cloacae [39]): 64 µg/mL; MIC (Enterobacter cloacae [40]): 16 µg/mL
NCCCCOc1ccc(Cl)cc1C(=O)Nc1ccc([N+](=O)[O-])cc1Cl | inactive | > 15 µg/mL | inactive | > 15 µg/mL | inactive | inactive | inactive | inactive | Active | inactive | inactive | inactive | > 15 µg/mL | 15 µg/mL (≈ 37.7 µM) | 15 µg/mL (≈ 37.7 µM) | Active | Active | inactive | Active | 15 µg/mL (≈ 37.7 µM) | Activity (Klebsiella pneumoniae [41]): Active; Activity (Klebsiella pneumoniae [42]): Active; fractional inhibitory concentration index (FICI) (Escherichia coli [13]): 0.25; Activity (Escherichia coli [33]): Active; growth inhibition (GI) (Klebsiella pneumoniae [23]): Active; fractional inhibitory concentration index (FICI) (Klebsiella pneumoniae [43]): 0.5; Activity (Escherichia coli [44]): Active; growth inhibition (GI) (Klebsiella pneumoniae [25]): Active
